The MIC is the smallest concentration in the dilution series that meets the test's criterion for growth inhibition.

Counter-ions that a name gives are not always drawn.

The results in this text go back to EP0367124A1, “Penicillanic acid derivatives” (F. HOFFMANN-LA ROCHE AG, priority 1988, dated 1990).

Assay in all cases: In vitro MIC, Agar Well Diffusion Method
What all share (assay type): cell-based
(In general: Agar diffusion results depend on both activity and mobility in agar.)

Assay [1] concerns Staphylococcus aureus 3037B. Particulars: Culture Staphylococcus aureus 3037B.
For another assay, the system named is Proteus vulgaris 100. Particulars: Culture Proteus vulgaris 100. An excerpt: (§1) The in vitro activity of compounds of the present invention as measured by the Minimum Inhibitory Concentration (MIC) in micrograms per milliliter (mcg/ml), utilizing the Agar Well Diffusion Method, against a variety of Gram-negative microorganisms is illustrated in the following Table, in which the compounds evaluated were as follows: • Compound A: [2S-[2α,3α,5α,6β(R*)]]-6-[[[[(4-Ethyl-2,3-dioxo-1-piperazinyl)carbonyl]amino]phenylacetyl]amino]-3-methyl-3-[[(1-methyl-1H-tetrazole-5-yl)thio]methyl]-7-oxo-4-thia-1-azabicyclo[3.2.0]-heptane-2-carboxylic acid monosodium salt sesquihydrate • Compound B: [2S-(2α,3α,5α,6β)]-3-Methyl-3-[[(1-methyl-1H-tetrazol-5-yl)-thio]methyl-7-oxo-6-[(phenylacetyl)amino]-4-thia-1-azabicyclo[3.2.0] heptane-2-carboxylic acid monosodium salt • Compound C: [2S-[2α,3α,5α,6β(Z)]]-6-[[(2-Amino-4-thiazolyl)-(methoxyimino)-acetyl]amino]-3-methyl -3-[[(1-methyl-1H-tetrazol-5-yl)thio]methyl]-7-oxo-4-thia-1-azabicyclo[3.2.0]heptane-2-carboxylic acid monosodium salt • Compound D: [2S-(2α,3α,5α,6β)]-3-(Azidomethyl)-3-methyl-7-oxo-6-[(phenylacetyl)amino]-4-thia-1-azabicyclo-[3.2.0]heptane-2-carboxylic acid monosodium salt • Compound E: [2S-(2α,3α,5α,6β)]-1-[[2-carboxy-3-methyl-7-oxo-6-[(phenylacetyl)amino]-4-thia-1-azabicyclo-[3.2.0]hept-3-yl]methylpyridinium hydroxide inner salt • Compound F: [2S-(2α,3α,5α,6β)]-3-[[(2,5-Dihydro-6-hydroxy-2-methyl-5-oxo-1,2,4-triazine-3-yl)thio] -methyl]-3-methyl-7-oxo-6-[(phenylacetyl)amino]-4-thia-1-azabicyclo[3.2.0]heptane-2-carboxylic acid disodium salt • Compound G: [2S-(2α,3α,5α,6β)]-3-[(Acetylthio)-methyl]-3-methyl-7-oxo-6-[(phenylacetyl)amino]-4-thia-1-azabicyclo[3.2.0]heptane-2-carboxylic acid monosodium salt • Compound H: [2S-(2α,3α,5α,6β)]-3-[[[3,4-bis(Acetyloxy)benzoyl]oxy]methyl]-3-methyl-7-oxo-6-[(phenylacetyl)amino]-4-thia-1-azabicyclo[3.2.0]heptane-2-carboxylic acid monosodium salt

Assay [2] deals with Micrococcus luteus PCI ATCC 9341. Particulars: ATCC9341, Culture Micrococcus luteus PCI ATCC 9341.
Source text: as §1

Assay [3] deals with Proteus vulgaris 101N ATCC 6380. Particulars: ATCC6380, Culture Proteus vulgaris 101N ATCC 6380.
Source text: as §1

Assay [4] has as its system Bacillus megaterium 164 ATCC 8011. The note with it: Priestia megaterium, ATCC8011, Culture Bacillus megaterium 164 ATCC 8011.
Source text: as §1

In assay [5] the test system is Staphylococcus aureus 82 ATCC 6538P. The note with it: ATCC6538P, Culture Staphylococcus aureus 82 ATCC 6538P.
Source text: as §1

In assay [6] the test system is Pseudomonas aeruginosa 56 ATCC 8079. The note with it: ATCC8079, Culture Pseudomonas aeruginosa 56 ATCC 8079.
Source text: as §1

The subject of the next assay is Escherichia coli 2721B. The note with it: Culture Escherichia coli 2721B.
Source text: as §1

Assay [7] deals with Streptococcus faecium ATCC 8043. Particulars: Enterococcus faecium, ATCC8043, Culture Streptococcus faecium ATCC 8043.
Source text: as §1

The test system of assay [8] is Staphylococcus aureus 3647B. Particulars: Culture Staphylococcus aureus 3647B.
Source text: as §1

A further assay relates to Escherichia coli 1269B. The note with it: Culture Escherichia coli 1269B.
Source text: as §1

In the next assay the test system is Escherichia coli 3082B. Particulars: Culture Escherichia coli 3082B.
Source text: as §1

Assay [9] concerns Bacillus subtilus 558 NRRL 558. Particulars: NRRL558, Culture Bacillus subtilus 558 NRRL 558.
Source text: as §1

Assay [10] deals with Pseudomonas maltophilia 28978 ATCC 17445. The note with it: Stenotrophomonas maltophilia, ATCC17445, Culture Pseudomonas maltophilia 28978 ATCC 17445.
Source text: as §1

Assay [11] has as its system Pseudomonas aeruginosa 56M. Particulars: Culture Pseudomonas aeruginosa 56M.
Source text: as §1

Another assay concerns Escherichia coli 3081B. The note with it: Culture Escherichia coli 3081B.
Source text: as §1

Another assay concerns Escherichia coli 2722B. Particulars: Culture Escherichia coli 2722B.
Source text: as §1

Assay [12] concerns Staphylococcus aureus 1059B. Particulars: Culture Staphylococcus aureus 1059B.

Turning to `CC1(CN=[N+]=[N-])SC2C(NC(=O)Cc3ccccc3)C(=O)N2C1C(=O)O` (stereo not drawn) [Compound D, [2S-(2α,3α,5α,6β)]-3-(Azidomethyl)-3-methyl-7-oxo-6-[(phenylacetyl)amino]-4-thia-1-azabicyclo-[3.2.0]heptane-2-carboxylic acid monosodium salt], the MIC in assay [1] is 125 µg/mL; with Proteus vulgaris 100, more than 125 µg/mL; in [2], 0.03 µg/mL; in assay [3], 15.6 µg/mL; in [4], 0.12 µg/mL; in assay [5], 0.03 µg/mL. The MIC in assay [6] is more than 125 µg/mL; with Escherichia coli 2721B, 62.5 µg/mL; in assay [7] it was 7.8 µg/mL; in assay [8], 125 µg/mL; with Escherichia coli 1269B, more than 125 µg/mL; against Escherichia coli 3082B it was 7.8 µg/mL. Further, the MIC is 0.06 µg/mL in assay [9]; more than 125 µg/mL in assay [10]; 3.9 µg/mL in [11]; 125 µg/mL against Escherichia coli 3081B; 15.6 µg/mL with Escherichia coli 2722B; 7.8 µg/mL in assay [12].

For `CON=C(C(=O)NC1C(=O)N2C1SC(C)(CSc1nnnn1C)C2C(=O)O)c1csc(N)n1` (stereo not drawn) [Compound C, [2S-[2α,3α,5α,6β(Z)]]-6-[[(2-Amino-4-thiazolyl)-(methoxyimino)-acetyl]amino]-3-methyl-3-[[(1-methyl-1H-tetrazol-5-yl)thio]methyl]-7-oxo-4-thia-1-azabicyclo[3.2.0]heptane-2-carboxylic acid monosodium salt], the MIC amounted to 250 µg/mL in [1]; 250 µg/mL against Proteus vulgaris 100; 0.24 µg/mL in [2]; 31.3 µg/mL in [3]; 0.12 µg/mL in [4]; 0.49 µg/mL in [5]. Also, the MIC in [6] is 62.5 µg/mL; in the assay with Escherichia coli 2721B, 31.3 µg/mL; in assay [7] it was 125 µg/mL; in assay [8], 250 µg/mL; against Escherichia coli 1269B, more than 500 µg/mL; against Escherichia coli 3082B it was 1.95 µg/mL. For the same compound, the MIC in [9] is 0.49 µg/mL; in assay [10], more than 500 µg/mL; in assay [11], 0.98 µg/mL; against Escherichia coli 3081B, more than 125 µg/mL; with Escherichia coli 2722B, 1.95 µg/mL; in assay [12], 3.9 µg/mL.
